Laboratory results as given in patent publication US10098581B2, “Integrated electrical profiling system for measuring leukocytes activation from whole blood” (Massachusetts Institute of Technology, priority 2014, dated 2018).

Experiments:
Format in all cases: cell-based
[1] = test system: human granulocytes; experiment: Flow cytometry and functional assays of PMA-activated granulocytes; conditions: different doses of PMA
Method: 10 ml samples of heparinized human blood were obtained from healthy donors (Blood Research Components, LLC). Two aliquots of 5 ml of blood were set in 3 ml of Mono-Poly Resolving Medium (MP Biosciences) and the samples were spun in a free hanging centrifuge at 400 cfg for 40 min. The resulting layered samples contained a band of granulocytes that were recovered and triple washed with a PBS solution. Finally, the cells were resuspended in a PBS solution (PBS, 1% BSA, 1 u Heparin).
(§1) Human granulocytes were activated with different concentrations of PMA (Phorbol 12-Myristate 13-Acetate, Sigma Aldrich) in a PBS solution with Mg^++ and Ca^++. To activate the cells, a 1:1 solution of suspended cells was mixed with PMA buffer and the resulting suspension was incubated for 20 min at room temperature.
Flow cytometry (FC) was performed with a BD Accuri (Becton Dickinson) flow cytometer with a 488 nm and a 670 nm emitter. Granulocytes were gated based on side and forward scatter and stained with anti-human CD11b-PE, anti-human CD66b-PerCP-CY5.5 and anti-human CD18-FITC (Becton Dickinson) as activation indicators. Mouse samples were stained using anti-mouse CD-18 and anti-mouse Ly6G as an activation marker.
The first goal was to confirm that IDS is able to discern IDP differences in activated and non-activated human granulocytes extracted from freshly collected blood. […]

[2] = test system: human granulocytes; experiment: Single-sided iso-dielectric separation (IDS): IDP distributions of PMA-treated vs non-treated granulocytes
From the text: In IDS, a heterogeneous population of cells suspended in high conductivity media was loaded into a microfluidic chip. Other inlets containing intermediate and low conductivity media provided a parallel laminar co-flow. This configuration generated a conductivity gradient perpendicular to the main microfluidic channel flow. The channel also had slanted planar electrodes patterned at the bottom (single-sided IDS) or top and bottom (double-sided IDS). An AC electric field applied to the electrodes generated a DEP barrier that guided the cells across the conductivity gradient. Cells escaped the DEP barrier at their isodielectric position (IDP), which is the position where they are at dielectric equilibrium with the surrounding medium. Cells with different effective permittivity (or effective conductivity) escaped at a different IDP resulting in a transverse spatial distribution of cells. A CCD camera near the end of the channel took videos of the cells. Finally, image-processing software detected these cells and computed the resulting IDP distribution (see FIGS. 4a-4d).
To determine the IDP different populations, suspensions (2×10^6 cells/ml) in PBS buffer with a conductivity of 1.2 S/m (PBS, 1% BSA, 1 u Heparin) were used. For the intermediate and low conductivity media, this buffer was mixed with an isotonic sucrose solution to achieve an intermediate conductivity of 0.8 S/m and a low conductivity of 0.4 S/m.
A function generator (Agilent 33220A) and an amplifier applied a 10 Vpp AC field with the same amplitude across all frequencies. A CCD camera at the end of the main channel imaged fluorescently labeled cells flowing across the field of view. An image detection script analyzed the videos to detect cells in each frame and determine the centroid of each cell. The same script generated cell position distributions that correspond to the resulting IDP distribution.
as §1
Using a single-sided IDS platform, the IDP distributions of granulocytes treated with 1 μM PMA and a control population of non-treated granulocytes were examined. A 10 Vpp AC voltage was applied to the electrodes with frequencies ranging from 0.5 MHz to 15 MHz. Cells were loaded at 0.4 μl/min and the intermediate and low conductivity buffer at 0.55 μl/min (1.5 μl/min total). To determine the IDP distributions for each frequency, the IDP distributions of at least 1000 cells were recorded, which required an acquisition of about 1.5 min. […]

[3] = test system: neutrophils; experiment: IDP evolution of PMA-treated neutrophils over treatment time; conditions: normalized IDP vs PMA treatment time in minutes (FIG. 16B)
From the text: In another embodiment according to the invention, isodielectric position dynamics can be used to assist with diagnostics. In particular, activation of leukocytes can be tracked with DCFH-DA oxidation. FIG. 16A is a graph of respiratory burst (DCFH-DA oxidation), showing DCF median intensity on the vertical axis, versus PMA (Phorbol 12-Myristate 13-Acetate, Sigma Aldrich) treatment time in minutes (horizontal axis), at different concentrations of PMA. FIG. 16B is a graph of iso-dielectric point (IDP) evolution of PMA-treated neutrophils, showing normalized IDP on the vertical axis versus PMA treatment time in minutes on the horizontal axis.

[4] = test system: human granulocytes; experiment: IDS mechanism study of neutrophil activation with chemical inhibitors; conditions: 10 MHz; 0.5 μM fMLP, 2 μM PMA; 20 minutes stimulation
Method: This experiment focuses on the mechanism study of electrical changes during neutrophil activation. The mechanism study aims to help understand which aspect of neutrophil activation iso-dielectric separation is sensitive to. Different inhibitors were added to reduce the effect of membrane ruffling, reactive oxygen species (ROS) generation, and degranulation before activation to decouple the effect of the three factors. FIG. 19 is a schematic diagram illustrating aspects of activation of a neutrophil in response to a stimulus. In membrane ruffling, volume changes occur with advanced activation. Membrane roughness can increase the membrane capacitance. In Reactive Oxygen Species (ROS) generation, cytoplasm conductivity increases. NADPH oxidase is a major cause of the ROS generation. Degranulation occurs during phagocytosis, and lowers cytoplasmic ionic content. The experiment uses chemical inhibitors to block specific aspects of activation to determine the dominant causes of electrical changes. FIG. 20A is a summary of the procedure. Human granulocytes are first isolated from whole blood with a density gradient method, and then were split into six aliquots for different treatment. CytB, CytB+Jasp, CytB+DPI were added for inhibiting membrane ruffling, membrane ruffling and degranulation, membrane ruffling and ROS generation, respectively. The inhibition treatment lasted for ten minutes. […]

Row | Structure (SMILES) | levels of reactive oxygen species [1] | CD11b and CD18 expression ([1]; 20 min at room temperature) | IDP distribution of treated granulocytes vs non-treated control ([2]; 1 μM PMA, as frequency increases (0.5-15 MHz), 10 Vpp) | peak ROC area-under-the-curve (AUC), IDP as classification threshold ([2]; 1 μM PMA, frequencies 10-15 MHz) | activation state of neutrophils (IDP profiling) ([2]; 1000 nM PMA) | ROC area under the curve, IDP as classification criteria ([2]; PMA treated vs control, above 5 MHz) | IDP of treated neutrophils versus treatment time [3] | IDP shift of stimulated granulocytes (indicating activation) [4]
1 | CCCCCCCCCCCCCC(=O)O[C@@H]1[C@@H](C)[C@@]2(O)[C@@H](C=C(CO)C[C@]3(O)C(=O)C(C)=C[C@@H]23)[C@@H]2C(C)(C)[C@]12OC(C)=O [PMA, Phorbol 12-Myristate 13-Acetate] | increased | increased | displaced towards higher IDP | 0.62 | activated | > 0.6 | changes over time | shifted to the left
2 | CSCC[C@H](NC=O)C(=O)N[C@@H](CC(C)C)C(=O)N[C@@H](Cc1ccccc1)C(=O)O [fMLP, N-Formylmethionyl-leucyl-phenylalanine] |  |  |  |  |  |  |  | shifted to the left
